Measured values from ChEMBL document CHEMBL3885881, “DrugMatrix”.

Organism: Rattus norvegicus
Assay: DrugMatrix - Regimen: Daily Repeat
Assay type: toxicity, organism-based, Sprague-Dawley
Set-up: regimen Daily Repeat, gender Male, age 6-8 weeks
Conditions: in vivo, po, route oral GAVAGE, vehicle 100 % WATER; for ABSOLUTE BASOPHIL / ABSOLUTE EOSINOPHIL / ABSOLUTE LYMPHOCYTE / ABSOLUTE MONOCYTE / ABSOLUTE SEGMENTED NEUTROPHIL / BASOPHIL / EOSINOPHIL / ERYTHROCYTE COUNT / HEMATOCRIT / HEMOGLOBIN / LEUKOCYTE COUNT / LYMPHOCYTE / MEAN CORPUSCULAR HEMOGLOBIN / MEAN CORPUSCULAR HEMOGLOBIN CONCENTRATION / MEAN CORPUSCULAR VOLUME / MONOCYTE / NEUTROPHIL / NUCLEATED RED BLOOD CELLS / PLATELET COUNT: tissue Blood; for ALANINE AMINOTRANSFERASE / ALBUMIN / ALKALINE PHOSPHATASE / ASPARTATE AMINOTRANSFERASE / BLOOD UREA NITROGEN / CARBON DIOXIDE / CHLORIDE / CHOLESTEROL / CREATINE PHOSPHOKINASE / CREATININE / GLUCOSE / LACTATE DEHYDROGENASE / LIPASE / PHOSPHORUS / POTASSIUM / SODIUM / TOTAL BILIRUBIN / TOTAL PROTEIN / URIC ACID: tissue Plasma
[1] = 200 mg/kg, 120 h, dose level Low, time 5 day
[2] = 2625 mg/kg, 72 h, dose level High, time 3 day
[3] = 2625 mg/kg, 120 h, dose level High, time 5 day

In the case of `O=C(O)c1cccnc1` [NIACIN], the “ABSOLUTE BASOPHIL” value [1] is reported as 0 CELLS/uL, the “ABSOLUTE EOSINOPHIL” value [1] is reported as 0 CELLS/uL and the “ABSOLUTE LYMPHOCYTE” value [1] is reported as 13805.67 CELLS/uL. The “ABSOLUTE MONOCYTE” value [1] was 0 CELLS/uL, the “ABSOLUTE SEGMENTED NEUTROPHIL” value [1] was 1394.33 CELLS/uL and the BASOPHIL [1] was 0%. For the same compound, the EOSINOPHIL [1] was 0%, the “ERYTHROCYTE COUNT” value [1] was 5.57 x10E6/uL and the HEMATOCRIT [1] was 34.77%. For the same compound, the HEMOGLOBIN [1] was 13.77 G/DL, the “LEUKOCYTE COUNT” value [1] was 15.2 x10E3/uL and the LYMPHOCYTE [1] was 91%. For the same compound, the “MEAN CORPUSCULAR HEMOGLOBIN” value [1] was 24.73 pg, the “MEAN CORPUSCULAR HEMOGLOBIN CONCENTRATION” value [1] was 39.57 G/DL and the “MEAN CORPUSCULAR VOLUME” value [1] was 62.53 fL. The MONOCYTE [1] was 0%, the NEUTROPHIL [1] was 9% and the “NUCLEATED RED BLOOD CELLS” value [1] was 0.33 /100WBC. The “PLATELET COUNT” value [1] was 1180.67 x10E3/uL, the “ALANINE AMINOTRANSFERASE” value [1] was 55.33 u/L and the ALBUMIN [1] was 4.03 G/DL. For the same compound, the “ALKALINE PHOSPHATASE” value [1] was 296.33 u/L, the “ASPARTATE AMINOTRANSFERASE” value [1] was 77.67 u/L and the “BLOOD UREA NITROGEN” value [1] was 12.67 mg/dL. The “CARBON DIOXIDE” value [1] was 31.33 mmol/L, the CHLORIDE [1] was 101.67 MEQ/L and the CHOLESTEROL [1] was 76.33 mg/dL. For the same compound, the “CREATINE PHOSPHOKINASE” value [1] was 209 u/L, the CREATININE [1] was 0.23 mg/dL and the GLUCOSE [1] was 140 mg/dL. For the same compound, the “LACTATE DEHYDROGENASE” value [1] was 212 u/L, the LIPASE [1] was 13 u/L and the PHOSPHORUS [1] was 12.63 mg/dL. For the same compound, the POTASSIUM [1] was 6.55 MEQ/L, the SODIUM [1] was 145.13 MEQ/L and the “TOTAL BILIRUBIN” value [1] was 0.13 mg/dL. The “TOTAL PROTEIN” value [1] was 5.93 G/DL, the “URIC ACID” value [1] was 1.43 mg/dL and the “ABSOLUTE BASOPHIL” value [2] was 0 CELLS/uL. For the same compound, the “ABSOLUTE EOSINOPHIL” value [2] was 135 CELLS/uL, the “ABSOLUTE LYMPHOCYTE” value [2] was 10224 CELLS/uL and the “ABSOLUTE MONOCYTE” value [2] was 258 CELLS/uL. For the same compound, the “ABSOLUTE SEGMENTED NEUTROPHIL” value [2] was 1683 CELLS/uL, the BASOPHIL [2] was 0% and the EOSINOPHIL [2] was 1%. The “ERYTHROCYTE COUNT” value [2] was 5.89 x10E6/uL, the HEMATOCRIT [2] was 36.17% and the HEMOGLOBIN [2] was 14.27 G/DL. For the same compound, the “LEUKOCYTE COUNT” value [2] was 12.3 x10E3/uL, the LYMPHOCYTE [2] was 84% and the “MEAN CORPUSCULAR HEMOGLOBIN” value [2] was 24.23 pg. The “MEAN CORPUSCULAR HEMOGLOBIN CONCENTRATION” value [2] was 39.43 G/DL, the “MEAN CORPUSCULAR VOLUME” value [2] was 61.33 fL and the MONOCYTE [2] was 2%. The NEUTROPHIL [2] was 13%, the “NUCLEATED RED BLOOD CELLS” value [2] was 0.33 /100WBC and the “PLATELET COUNT” value [2] was 1326 x10E3/uL. The “ALANINE AMINOTRANSFERASE” value [2] was 45 u/L, the ALBUMIN [2] was 3.73 G/DL and the “ALKALINE PHOSPHATASE” value [2] was 269.33 u/L. The “ASPARTATE AMINOTRANSFERASE” value [2] was 105 u/L, the “BLOOD UREA NITROGEN” value [2] was 15 mg/dL and the “CARBON DIOXIDE” value [2] was 29 mmol/L. The CHLORIDE [2] was 100.33 MEQ/L, the CHOLESTEROL [2] was 68.67 mg/dL and the “CREATINE PHOSPHOKINASE” value [2] was 532.33 u/L. The CREATININE [2] was 0.18 mg/dL, the GLUCOSE [2] was 145.67 mg/dL and the “LACTATE DEHYDROGENASE” value [2] was 900 u/L. It also gave an LIPASE [2] of 11.33 u/L, a PHOSPHORUS [2] of 12.33 mg/dL and a POTASSIUM [2] of 6.2 MEQ/L. The SODIUM [2] was 144.73 MEQ/L, the “TOTAL BILIRUBIN” value [2] was 0.13 mg/dL and the “TOTAL PROTEIN” value [2] was 5.57 G/DL. The “URIC ACID” value [2] was 1.47 mg/dL, the “ABSOLUTE BASOPHIL” value [3] was 0 CELLS/uL and the “ABSOLUTE EOSINOPHIL” value [3] was 0 CELLS/uL. The “ABSOLUTE LYMPHOCYTE” value [3] was 15227.67 CELLS/uL, the “ABSOLUTE MONOCYTE” value [3] was 166 CELLS/uL and the “ABSOLUTE SEGMENTED NEUTROPHIL” value [3] was 1206.33 CELLS/uL. The BASOPHIL [3] was 0%, the EOSINOPHIL [3] was 0% and the “ERYTHROCYTE COUNT” value [3] was 5.68 x10E6/uL. The HEMATOCRIT [3] was 36.37%, the HEMOGLOBIN [3] was 14.23 G/DL and the “LEUKOCYTE COUNT” value [3] was 16.6 x10E3/uL. For the same compound, the LYMPHOCYTE [3] was 91.67%, the “MEAN CORPUSCULAR HEMOGLOBIN” value [3] was 25.07 pg and the “MEAN CORPUSCULAR HEMOGLOBIN CONCENTRATION” value [3] was 39.17 G/DL. For the same compound, the “MEAN CORPUSCULAR VOLUME” value [3] was 64 fL, the MONOCYTE [3] was 1% and the NEUTROPHIL [3] was 7.33%. The “NUCLEATED RED BLOOD CELLS” value [3] was 0.33 /100WBC, the “PLATELET COUNT” value [3] was 1260.67 x10E3/uL and the “ALANINE AMINOTRANSFERASE” value [3] was 55 u/L. For the same compound, the ALBUMIN [3] was 4.07 G/DL, the “ALKALINE PHOSPHATASE” value [3] was 397.33 u/L and the “ASPARTATE AMINOTRANSFERASE” value [3] was 96 u/L. For the same compound, the “BLOOD UREA NITROGEN” value [3] was 16.67 mg/dL, the “CARBON DIOXIDE” value [3] was 32.33 mmol/L and the CHLORIDE [3] was 100.67 MEQ/L. For the same compound, the CHOLESTEROL [3] was 55.33 mg/dL, the “CREATINE PHOSPHOKINASE” value [3] was 323.67 u/L and the CREATININE [3] was 0.2 mg/dL. The GLUCOSE [3] was 151 mg/dL, the “LACTATE DEHYDROGENASE” value [3] was 666 u/L and the LIPASE [3] was 10.33 u/L. For the same compound, the PHOSPHORUS [3] was 11.7 mg/dL, the POTASSIUM [3] was 6.01 MEQ/L and the SODIUM [3] was 145.9 MEQ/L. The “TOTAL BILIRUBIN” value [3] was 0.27 mg/dL, the “TOTAL PROTEIN” value [3] was 5.7 G/DL and the “URIC ACID” value [3] was 1.43 mg/dL.
